Measured values reported in US20230416329A1, “A PEPTIDE WITH DISULFIDE BONDS AND INHIBITORY ACTIVITY AGAINST SERINE PROTEASES, DERIVED HYBRID PEPTIDES THEREOF, AND USES THEREOF” (INSTITUTE OF MATERIA MEDICA , CHINESE ACADEMY OF MEDICAL …, priority 2020, published 2023).
Bridge positions count the residues as written; N and C are the ends. Square brackets hold non-standard residues; d marks the D form. Peptide text beside a SMILES is read from it. Hyp = O=C(O)[C@@H]1C[C@@H](O)CN1

How the values were obtained:
DPP-IV = DPP-IV (Homo sapiens, UniProt P27487); assay: Tolerance of GLP-1 and its analogues to DPP-IV (RP-HPLC remaining peak area); assay type: in vitro ADME; conditions: peptide 25 μM, DPP-IV 0.5 ng/μL, 37° C.
Procedure: (§1) Mix by centrifugation at 8000 rpm for 30 seconds.
(2) Arrange a certain volume of 0.005 μg/μL DPP-IV solution in another sterile EP.

chymotrypsin = chymotrypsin (Bos taurus, UniProt P00766); assay: in vitro; conditions: isolated enzyme chymotrypsin, pH 7.8, Remaining peak area (%)/chymotrypsin
Procedure: FIG. 18. […] At different time point, 25 μL aliquots was taken out, and 10% (v/v) TFA was added to terminate the reaction.
as §1
Arrange a certain volume of 0.05 μg/μL chymotrypsin solution in another sterile EP. Incubate the EP tubes containing peptides and enzymes at 37° C. for 5 min, and add 3 μL of […] solution to each EP tube containing peptides and mix well. Start timing and extract 25 μL of reaction solution at 1.5, 3.0, 4.5, 6.0 and 9.0 min later, respectively. Add 3.75 μL of 10% TFA to terminate the reaction and mix well by centrifugation at 8000 rpm for 30 seconds.
Arrange a certain volume of 0.05 μg/μL chymotrypsin solution in another sterile EP. Incubate the EP tubes containing peptides and enzymes at 37° C. for 5 min, and then add 4.5 μL of chymotrypsin solution to each EP tube containing peptides and mix well. Start timing and extract 25 μL of reaction solution at 1.5, 3.0, 4.5, 6.0, 9.0, 15.0, 30.0, and 60.0 min later, respectively. Add 3.75 μL of 10% TFA to terminate the reaction and mix well by centrifugation at 8000 rpm for 30 seconds.
Referring to the experimental method in Example 5, in vitro stability of salmon Calcitonin analogs with oral administration activity to the enzymatic hydrolysis by trypsin, chymotrypsin and elastase were performed.
Referring to the experimental method in Example 5, in vitro stability of IL-17A inhibitory peptides towards the enzymatic hydrolysis by trypsin, chymotrypsin and elastase were performed.

[1] = Stability of GLP-1 and its analogues in human serum; conditions: 25% (v/v) human serum
Procedure: The amount of the prototype peptide at 0 h was taken as 100%. At different time point, 100 μL aliquots was taken out, and 300 μL precooled anhydrous methanol was added to terminate the reaction. The remaining percentage (%) of the peptide relative to the prototype peptide at that time point was analyzed by reverse phase high performance liquid chromatography. The experiment was performed with three replicates, and data were expressed as “mean±standard deviation”. The sample was subjected to high-speed centrifugation, supernatant extraction, and freeze drying, followed by dissolution in 50% (v/v) methanol/water solution, and analyzed by reverse phase high performance liquid chromatography. The experiment was performed with three replicates, and data were expressed as “mean±standard deviation”.
Invert and mix thoroughly, then leave at −20° C. overnight. At the same time, take three sterile EP tubes and add 25 μL of human serum, 75 μL of 50 mM Tris-HCl buffer (pH7.0), and 300 μL of pre-cold absolute methanol. Invert and mix thoroughly, then leave at −20° C. overnight as a negative control, so as to eliminate the interference of proteins or peptides contained in human serum at the peak time of the target peptide after methanol precipitation.
Arrange a certain volume of human serum in another sterile EP. Incubate the EP tubes containing peptides and serum at 37° C. for 10 min, and add 137.5 μL of human serum to each EP tube containing peptides and mix well. […] Start timing and remove 100 μL of reaction solution at 0.5, 2.0, 4.0, 8.0, and 12.0 h later, respectively. Add 300 μL of pre-cold absolute methanol. Invert and mix thoroughly, then leave at −20° C. overnight. […] There are three replicates at each time point, and the peak area of the peptide at each time point is detected using reverse phase high-performance liquid chromatography (RP-HPLC). The ratio of the remaining peak area of the sample at detection time T (h) to the peak area of the prototype peptide at 0 h is calculated as the remaining percentage (%) of the peptide.

[2] = biological target: porcine pancreatic elastase (Sus scrofa, UniProt P00772); assay: Elastase inhibitory activity of peptides (AAApNA hydrolysis; IC50, Ki, residual activity); assay type: biochemical; conditions: for IC50: elastase 0.5 μM, AAApNA 1 mM; for Ki: read-out: Ki
Summary of the method: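 Porcine pancreatic elastase, 0.5 μM final, was preincubated with peptide for 10 min at 37° C in 20 mM CaCl2, 50 mM Tris-HCl pH 8.0. AAApNA (1 mM final) was then added for 60 min and A405 read. Residual activity gave IC50, converted to Ki via IC50/(1+S/Km) using measured Km.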

Sequence of DPP-IV (P27487 whole entry, species assumed): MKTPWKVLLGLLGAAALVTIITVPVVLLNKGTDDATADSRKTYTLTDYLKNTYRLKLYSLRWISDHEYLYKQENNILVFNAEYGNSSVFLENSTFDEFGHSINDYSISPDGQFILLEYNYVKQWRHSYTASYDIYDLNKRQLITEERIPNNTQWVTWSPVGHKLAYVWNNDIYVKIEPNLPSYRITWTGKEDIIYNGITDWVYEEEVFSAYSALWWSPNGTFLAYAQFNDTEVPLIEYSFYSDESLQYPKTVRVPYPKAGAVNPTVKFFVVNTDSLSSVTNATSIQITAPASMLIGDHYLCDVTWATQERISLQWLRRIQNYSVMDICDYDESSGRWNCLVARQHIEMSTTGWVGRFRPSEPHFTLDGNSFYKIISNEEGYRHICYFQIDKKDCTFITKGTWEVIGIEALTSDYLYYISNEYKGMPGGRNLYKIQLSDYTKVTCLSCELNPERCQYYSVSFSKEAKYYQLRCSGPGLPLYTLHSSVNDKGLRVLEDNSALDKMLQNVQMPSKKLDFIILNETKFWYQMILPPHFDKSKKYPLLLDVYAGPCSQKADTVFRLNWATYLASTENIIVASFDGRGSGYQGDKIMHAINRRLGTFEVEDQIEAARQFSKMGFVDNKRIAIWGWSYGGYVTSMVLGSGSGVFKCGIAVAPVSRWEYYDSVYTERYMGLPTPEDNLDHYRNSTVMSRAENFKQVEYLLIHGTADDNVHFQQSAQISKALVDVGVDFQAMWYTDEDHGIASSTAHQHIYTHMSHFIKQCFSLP
Sequence of porcine pancreatic elastase (P00772 27-266): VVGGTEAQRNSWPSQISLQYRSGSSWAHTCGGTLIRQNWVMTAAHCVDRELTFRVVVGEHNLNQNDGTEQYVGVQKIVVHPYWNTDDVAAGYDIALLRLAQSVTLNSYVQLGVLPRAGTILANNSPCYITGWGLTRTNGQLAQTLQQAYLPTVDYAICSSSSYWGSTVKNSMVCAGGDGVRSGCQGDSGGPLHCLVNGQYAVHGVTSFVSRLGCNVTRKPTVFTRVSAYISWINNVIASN

CC[C@H](C)[C@H](NC(=O)[C@H](Cc1ccccc1)NC(=O)[C@H](CCC(=O)O)NC(=O)[C@H](CCCCN)NC(=O)[C@H](C)NC(=O)[C@H](C)NC(=O)[C@H](CCC(N)=O)NC(=O)CNC(=O)[C@H](CCC(=O)O)NC(=O)[C@H](CC(C)C)NC(=O)[C@H](Cc1ccc(O)cc1)NC(=O)[C@H](CO)NC(=O)[C@H](CO)NC(=O)[C@@H](NC(=O)[C@H](CC(=O)O)NC(=O)[C@H](CO)NC(=O)[C@@H](NC(=O)[C@H](Cc1ccccc1)NC(=O)[C@@H](NC(=O)CNC(=O)[C@H](CCC(=O)O)NC(=O)[C@H](C)NC(=O)[C@H](Cc1c[nH]cn1)NC(=O)CNC(=O)CNC(=O)[C@@H](NC(=O)[C@@H]1CCCN1C(=O)[C@@H](NC(=O)CNC(=O)CNC(=O)[C@H](Cc1ccc(O)cc1)NC(=O)[C@@H]1CSSC[C@H](NC(=O)[C@@H](N)CO)C(=O)N[C@@H]([C@@H](C)O)C(=O)N[C@@H](Cc2ccc(O)cc2)C(=O)N[C@@H](CO)C(=O)N[C@@H]([C@@H](C)CC)C(=O)N2CCC[C@H]2C(=O)N2CCC[C@H]2C(=O)N[C@@H](CCC(N)=O)C(=O)N1)[C@@H](C)CC)[C@@H](C)CC)[C@@H](C)O)[C@@H](C)O)C(C)C)C(=O)N[C@@H](C)C(=O)N[C@@H](Cc1c[nH]c2ccccc12)C(=O)N[C@@H](CC(C)C)C(=O)N[C@H](C(=O)N[C@@H](CCCCN)C(=O)NCC(=O)N[C@@H](CCCNC(=N)N)C(=O)NCC(=O)NCC(=O)N[C@@H](CCCCN)C(=O)O)C(C)C [CH4-D-GLP-1]
Remaining peak area (%)/DPP-IV (DPP-IV; 0.0 h): 100.0 ± 0.0%
remaining at 0.5 h, 25 μM (DPP-IV; isolated DPP-IV enzyme in buffer, pH 8, 0.5 h): 88.5 ± 0.7%
remaining at 2 h, 25 μM (DPP-IV; isolated DPP-IV enzyme in buffer, pH 8, 2.0 h): 90 ± 0.9%
remaining at 4 h, 25 μM (DPP-IV; isolated DPP-IV enzyme in buffer, pH 8, 4.0 h): 92.4 ± 0.5%
remaining at 8 h, 25 μM (DPP-IV; isolated DPP-IV enzyme in buffer, pH 8, 8.0 h): 85.1 ± 0.9%
remaining at 12 h, 25 μM (DPP-IV; isolated DPP-IV enzyme in buffer, pH 8, 12.0 h): 88.6 ± 3.7%
remaining at 0.025 h, 60 μM (chymotrypsin): 84.9 ± 1.6%
remaining at 0.05 h, 60 μM (chymotrypsin): 89.6 ± 4.2%
remaining at 0.075 h, 60 μM (chymotrypsin): 83.6 ± 0.5%
remaining at 0.1 h, 60 μM (chymotrypsin): 86.2 ± 0.7%
remaining at 0.15 h, 60 μM (chymotrypsin): 81.1 ± 4.7%
remaining at 0.25 h, 60 μM (chymotrypsin): 83.3 ± 1.4%
remaining at 0.5 h, 60 μM (chymotrypsin): 84.5 ± 3.7%
remaining at 1 h, 60 μM (chymotrypsin): 78.6 ± 2%
Remaining peak area (%)/human serum ([1]; 0.0 h, peptide 0.03 mM, 37° C.): 100.0 ± 0.0%
remaining at 0.5 h, 0.03 mM ([1]; human, pH 7): 72.3 ± 0.5%
remaining at 2 h, 0.03 mM ([1]; human, pH 7): 34 ± 0.2%
remaining at 4 h, 0.03 mM ([1]; human, pH 7): 16.6 ± 0.8%
remaining at 8 h, 0.03 mM ([1]; human, pH 7): 4.4 ± 0.2%
remaining at 12 h, 0.03 mM ([1]; human, pH 7): 1.8 ± 0.1%

CC[C@H](C)[C@@H]1NC(=O)CNC(=O)[C@@H](N)CSSC[C@@H](C(=O)N[C@@H](CCC(N)=O)C(=O)O)NC(=O)[C@H]([C@@H](C)CC)NC(=O)[C@@H]2CCCN2C(=O)[C@@H]2CCCN2C(=O)[C@H]([C@@H](C)CC)NC(=O)[C@H](CO)NC(=O)[C@H](C)NC(=O)[C@H]([C@@H](C)O)NC(=O)[C@H](CCC(N)=O)NC1=O [EC39] (H-CGIQTASIPPICQ-OH; disulfide 1-12)
IC50 [2]: > 50000 nM

CC[C@H](C)[C@@H]1NC(=O)CNC(=O)[C@@H](N)CSSC[C@@H](C(=O)N[C@@H](CCC(N)=O)C(=O)O)NC(=O)[C@H]([C@@H](C)CC)NC(=O)[C@@H]2CCCN2C(=O)[C@@H]2CCCN2C(=O)[C@H]([C@@H](C)CC)NC(=O)[C@H](CO)NC(=O)[C@H](C)NC(=O)[C@H]([C@@H](C)O)NC(=O)[C@H](Cc2c[nH]cn2)NC1=O [EC40] (H-CGIHTASIPPICQ-OH; disulfide 1-12)
IC50 [2]: > 50000 nM

CC[C@H](C)[C@@H]1NC(=O)CNC(=O)[C@@H](N)CSSC[C@@H](C(=O)N[C@@H](CCC(N)=O)C(=O)O)NC(=O)[C@H]([C@@H](C)CC)NC(=O)[C@@H]2CCCN2C(=O)[C@@H]2CCCN2C(=O)[C@H]([C@@H](C)CC)NC(=O)[C@H](CO)NC(=O)[C@H](C)NC(=O)[C@H]([C@@H](C)O)NC(=O)[C@H](CCCCN)NC1=O [EC42] (H-CGIKTASIPPICQ-OH; disulfide 1-12)
IC50 [2]: > 50000 nM

CC[C@H](C)[C@@H]1NC(=O)[C@@H]2CCCN2C(=O)[C@@H](N)CSSC[C@@H](C(=O)N[C@@H](CCC(N)=O)C(=O)O)NC(=O)[C@H]([C@@H](C)CC)NC(=O)[C@@H]2CCCN2C(=O)[C@@H]2CCCN2C(=O)[C@H]([C@@H](C)CC)NC(=O)[C@H](CO)NC(=O)[C@H](C)NC(=O)[C@H]([C@@H](C)O)NC(=O)[C@H](C)NC1=O [EC44] (H-CPIATASIPPICQ-OH; disulfide 1-12)
IC50 [2]: > 50000 nM

CC[C@H](C)[C@@H]1NC(=O)[C@@H]2C[C@@H](O)CN2C(=O)[C@@H](N)CSSC[C@@H](C(=O)N[C@@H](CCC(N)=O)C(=O)O)NC(=O)[C@H]([C@@H](C)CC)NC(=O)[C@@H]2CCCN2C(=O)[C@@H]2CCCN2C(=O)[C@H]([C@@H](C)CC)NC(=O)[C@H](CO)NC(=O)[C@H](C)NC(=O)[C@H]([C@@H](C)O)NC(=O)[C@H](C)NC1=O [EC46] (H-C[Hyp]IATASIPPICQ-OH; disulfide 1-12)
IC50 [2]: > 50000 nM

CC[C@H](C)[C@H](N)C(=O)N[C@H]1CSSC[C@@H](C(=O)N[C@@H](CCC(N)=O)C(=O)O)NC(=O)[C@H]([C@@H](C)CC)NC(=O)[C@@H]2CCCN2C(=O)[C@@H]2C[C@@H](O)CN2C(=O)[C@H]([C@@H](C)CC)NC(=O)[C@H](CO)NC(=O)[C@H](C)NC(=O)[C@H]([C@@H](C)O)NC1=O [EC47, Ile-Cys-Thr-Ala-Ser-Ile-Hyp-Pro-Ile-Cys-Gln] (H-ICTASI[Hyp]PICQ-OH; disulfide 2-10; C-terminus assumed)
IC50 [2]: 400 nM
Ki [2]: 110 nM

CC[C@H](C)[C@@H]1NC(=O)[C@H](CO)NC(=O)[C@H](C)NC(=O)[C@H]([C@@H](C)O)NC(=O)[C@@H](NC(=O)[C@H](CC(C)C)NC(=O)CNC(=O)CNC(=O)[C@@H](NC(=O)[C@@H]2CCCN2C(=O)[C@@H]2CCCN2C(=O)[C@@H](NC(=O)[C@H](CC(=O)O)NC(=O)[C@H](C)NC(=O)CNC(=O)[C@@H](N)CCC(N)=O)[C@@H](C)O)C(C)C)CSSC[C@@H](C(=O)N[C@@H](Cc2ccc(O)cc2)C(=O)O)NC(=O)[C@H](CCC(N)=O)NC(=O)[C@@H]2CCCN2C(=O)[C@@H]2CCCN2C1=O [EC49] (H-QGADTPPVGGLCTASIPPQCY-OH; disulfide 12-20; N-terminus and C-terminus assumed)
Ki [2]: 280 nM

CC[C@H](C)[C@@H]1NC(=O)[C@H](CO)NC(=O)[C@H](C)NC(=O)[C@H]([C@@H](C)O)NC(=O)[C@@H](NC(=O)[C@H](CC(C)C)NC(=O)CNC(=O)CNC(=O)[C@H](CC(=O)O)NC(=O)[C@H](CCC(=O)O)NC(=O)[C@@H](NC(=O)[C@H](C)NC(=O)[C@H](CC(N)=O)NC(=O)CNC(=O)[C@H](CC(N)=O)NC(=O)[C@@H](N)CO)C(C)C)CSSC[C@@H](C(=O)N[C@@H](Cc2ccc(O)cc2)C(=O)O)NC(=O)[C@H](CCC(N)=O)NC(=O)[C@@H]2CCCN2C(=O)[C@@H]2CCCN2C1=O [EC50] (H-SNGNAVEDGGLCTASIPPQCY-OH; disulfide 12-20; N-terminus and C-terminus assumed)
Ki [2]: 280 nM
